# Like-named read-outs stand apart in the source and are kept apart here.
# Experiments:
# [1] = system: S. aureus ATCC 13709; assay: microbe, parasite or virus in culture; format: cell-based; conditions: for Antibacterial activity (in words, from Table 1): S. aureus MIC
# Procedure: (§1) Susceptibility of S. aureus strains to the known antibiotics and synthesized compounds was determined by following the guidelines set by NCCLS (M26-A). Compounds were diluted two-fold serially in DMSO and transferred to cation-adjusted Mueller Hinton broth (CAMHB; Becton Dickinson). 50 μL of compounds diluted in CAMHB was mixed with 100 μL of bacteria diluted in CAMHB in 96-well microtiter plates. The final concentration of micro-organisms in the assay was 5×10^5c.f.u. per mL and the final concentration of DMSO in the assay was 1.25%. Assays were set up in duplicate and incubated at 37° C. for 18 h. The lowest concentration of compound that inhibited visible growth was reported as the minimum inhibitory concentration (MIC).
# [2] = format: in vitro ADME; conditions: for % Conversion (prodrug converted to parent drug after binding to bone): 24 h incubation, 37° C.
# Procedure: Amounts of parent drug “regenerated” from the phosphonated prodrug were measured as follows. Washed bone powder-bound prodrugs from the above experiment were resuspended in 400 μL PBS+2% DMSO or in 400 μL 50% (v/v in PBS+2% DMSO) human or rat serum. The suspension was incubated overnight at 37° C., centrifuged at 13,000 rpm for 2 min and the supernatant was recovered. The amount of regenerated parent drug in the supernatant was determined by measurements using the microbiological assay that was previously described for the prodrugs themselves. The amount of prodrug was deduced from standard curves of known amounts of parent drug that were used as reference for each experiment. The amount of regenerated drug assessed by this bioassay was corroborated by MIC determination. The percentage of drug regenerated in PBS or serum after the overnight incubation (Table 2) was deduced from the difference between the amount of bound prodrug and the amount of regenerated drug (not shown).
# [3] = system: S. aureus ATCC 13709; assay: microbe, parasite or virus in culture; format: cell-based; conditions: for Serum dependence of antibacterial activity (in words): MIC with versus without serum
# Procedure: as §1
# Susceptibility testing experiments were also carried out in the presence of serum. These experiments were carried out similar to the susceptibility testing with the following modifications. 75 μL of compounds diluted in CAMHB was mixed with 75 μL of bacteria diluted in 100% serum from any given source (commercial pooled mouse serum (MS) and human serum (HS), Equitech-Bio Inc.) or diluted in 8% purified human serum albumin (HSA) (Calbiochem). The final concentration of animal serum in the assay was 50% and the final concentration of purified human serum albumin in the assay was 4%; the concentrations of all other components were identical to those described for susceptibility testing.
# [4] = system: S. aureus ATCC 29213; assay: Antibacterial susceptibility (MIC), NCCLS broth microdilution; format: cell-based
# Procedure: as §1
# [5] = system: S. aureus ATCC 13709^A, Novobiocin and Rifampicin resistant variant; assay: as above; format: cell-based
# Procedure: as §1
SMILES,"Minimum inhibitory concentration, S. aureus ATCC 13709 ([1]; CAMHB, 37° C., 18 h)","Antibacterial activity (in words, from Table 1) [1]",Release of parent rifabutin from bone powder-bound prodrug (in words) [2],% Conversion (prodrug converted to parent drug after binding to bone) ([2]; 50% Heat Inactivated Rat Serum),% Conversion (prodrug converted to parent drug after binding to bone) ([2]; 50% Rat Serum),% Conversion (prodrug converted to parent drug after binding to bone) ([2]; PBS),"Minimum inhibitory concentration, ATCC 13709 + 50% Human Serum ([3]; 50% Human Serum)","Minimum inhibitory concentration, ATCC 13709 + 50% Mouse Serum ([3]; 50% Mouse Serum)","Minimum inhibitory concentration, ATCC 13709 + 50% Rat Serum ([3]; 50% Rat Serum)","Minimum inhibitory concentration, S. aureus ATCC 29213 ([4]; CAMHB, 37° C., 18 h)","Minimum inhibitory concentration, S. aureus ATCC 13709^A [5]",Serum dependence of antibacterial activity (in words) [3],"Minimum inhibitory concentration, ATCC 13709 + 50% Human Serum [3]","Minimum inhibitory concentration, S. aureus ATCC 13709 [1]","Minimum inhibitory concentration, ATCC 13709 + 50% Mouse Serum [3]","Minimum inhibitory concentration, ATCC 13709 + 50% Rat Serum [3]","Minimum inhibitory concentration, S. aureus ATCC 29213 [4]"
CO[C@H]1/C=C/O[C@@]2(C)Oc3c(C)c(O)c4c(c3C2=O)C2=NC3(CCN(CC(C)C)CC3)N(C(=O)Oc3ccc(NC(=O)CCC(P(=O)(O)O)P(=O)(O)O)cc3)C2=C(NC(=O)/C(C)=C\C=C\[C@H](C)[C@H](O)[C@@H](C)[C@@H](O)[C@@H](C)[C@H](OC(C)=O)[C@@H]1C)C4=O [Compound 28],0.5 µg/mL,very low MICs whether in the absence or in the presence of serum,"release significant amounts of the parent rifabutin once bound to bone powder, regardless of the presence of serum",0.07 ± 0.02%,0.06 ± 0.01%,0.06 ± 0.01%,0.25 µg/mL,2 µg/mL,0.0625 µg/mL,0.5 µg/mL,>128 µg/mL,,,,,,
CO[C@H]1/C=C/O[C@@]2(C)Oc3c(C)c(O)c4c(c3C2=O)C2=NC3(CCN(CC(C)C)CC3)NC2=C(NC(=O)/C(C)=C\C=C\[C@H](C)[C@H](OC(=O)CNC(=O)CNC(=O)[C@@H](Cc2ccccc2)NC(=O)CNC(=O)CCC(P(=O)(O)O)P(=O)(O)O)[C@@H](C)[C@@H](O)[C@@H](C)[C@H](OC(C)=O)[C@@H]1C)C4=O.N.N [Compound 79b],64 µg/mL,,,,,,128 µg/mL,64 µg/mL,8 µg/mL,64 µg/mL,>128 µg/mL,,,,,,
CCN(CC)CC.CO[C@H]1/C=C/O[C@@]2(C)Oc3c(C)c(O)c4c(c3C2=O)C2=NC3(CCN(CC(C)C)CC3)NC2=C(NC(=O)/C(C)=C\C=C\[C@H](C)[C@H](OC(=O)CNC(=O)Nc2ccc(CC(P(=O)(O)O)P(=O)(O)O)cc2)[C@@H](C)[C@@H](O)[C@@H](C)[C@H](OC(C)=O)[C@@H]1C)C4=O [Compound 142a],16 µg/mL,,,,,,128 µg/mL,16 µg/mL,2 µg/mL,16 µg/mL,>128 µg/mL,weak antibacterial activity does not show a serum dependence,,,,,
CO[C@H]1/C=C/O[C@@]2(C)Oc3c(C)c(O)c4c(c3C2=O)C2=NC3(CCN(CC(C)C)CC3)NC2=C(NC(=O)/C(C)=C\C=C\[C@H](C)[C@H](OC(=O)CN(C)CCOC(=O)CCC(P(=O)(O)O)P(=O)(O)O)[C@@H](C)[C@@H](O)[C@@H](C)[C@H](OC(C)=O)[C@@H]1C)C4=O [Compound 36],2 µg/mL,,"release significant amounts of the parent rifabutin once bound to bone powder, regardless of the presence of serum",0.07%,0.07%,0.07%,2 µg/mL,1 µg/mL,0.0625 µg/mL,2 µg/mL,>128 µg/mL,significant increase in antibacterial activity in serum,,,,,
CO[C@H]1/C=C/O[C@@]2(C)Oc3c(C)c(O)c4c(c3C2=O)C2=NC3(CCN(CC(C)C)CC3)NC2=C(NC(=O)/C(C)=C\C=C\[C@H](C)[C@H](OC(=O)CN(C)CC(=O)Nc2ccc(CC(P(=O)(O)O)P(=O)(O)O)cc2)[C@@H](C)[C@@H](O)[C@@H](C)[C@H](OC(C)=O)[C@@H]1C)C4=O [Compound 150],64 µg/mL,,,,,,,128 µg/mL,16 µg/mL,64 µg/mL,>128 µg/mL,,>128 µg/mL,,,,
CCN(CC)CC.CO[C@H]1/C=C/O[C@@]2(C)Oc3c(C)c(O)c4c(c3C2=O)C2=NC3(CCN(CC(C)C)CC3)NC2=C(NC(=O)/C(C)=C\C=C\[C@H](C)[C@H](OC(=O)CN(C)CC(=O)NC(P(=O)(O)O)P(=O)(O)O)[C@@H](C)[C@@H](O)[C@@H](C)[C@H](OC(C)=O)[C@@H]1C)C4=O [Compound 147],128 µg/mL,near complete loss of activity,,,,,16 µg/mL,2 µg/mL,32 µg/mL,128 µg/mL,>128 µg/mL,,,,,,
CO[C@H]1/C=C/O[C@@]2(C)Oc3c(C)c(O)c4c(c3C2=O)C2=NC3(CCN(CC(C)C)CC3)NC2=C(NC(=O)/C(C)=C\C=C\[C@H](C)[C@H](OC(=O)CN(C)CCOC(=O)CNC(=O)CCC(P(=O)(O)O)P(=O)(O)O)[C@@H](C)[C@@H](O)[C@@H](C)[C@H](OC(C)=O)[C@@H]1C)C4=O [Compound 42],0.125 µg/mL,very low MICs whether in the absence or in the presence of serum,,,,,0.0625 µg/mL,0.125 µg/mL,0.03125 µg/mL,0.25 µg/mL,>128 µg/mL,,,,,,
CCC(=O)Oc1cc(C)c(OCCCCC(P(=O)(O)O)P(=O)(O)O)c(C)c1CCC(=O)N[C@@H](Cc1ccccc1)C(=O)N(C)CC(=O)O[C@@H]1[C@@H](C)[C@@H](O)[C@@H](C)[C@H](OC(C)=O)[C@H](C)[C@@H](OC)/C=C/O[C@@]2(C)Oc3c(C)c(O)c4c(c3C2=O)C2=NC3(CCN(CC(C)C)CC3)NC2=C(NC(=O)/C(C)=C\C=C\[C@@H]1C)C4=O.N.N [Compound 138],,near complete loss of activity,,,,,,,,,>128 µg/mL,,>128 µg/mL,>128 µg/mL,>128 µg/mL,>128 µg/mL,>128 µg/mL
CCCCOC(=O)NCCN(CCCCC(P(=O)(O)O)P(=O)(O)O)CC(=O)O[C@@H]1[C@@H](C)[C@@H](O)[C@@H](C)[C@H](OC(C)=O)[C@H](C)[C@@H](OC)/C=C/O[C@@]2(C)Oc3c(C)c(O)c4c(c3C2=O)C2=NC3(CCN(CC(C)C)CC3)NC2=C(NC(=O)/C(C)=C\C=C\[C@@H]1C)C4=O [Compound 71],4 µg/mL,,,,,,16 µg/mL,8 µg/mL,1 µg/mL,8 µg/mL,>128 µg/mL,significant increase in antibacterial activity in serum,,,,,

# — patent publication US8524691B2, “Phosphonated rifamycins and uses thereof for the prevention and treatment of bone and joint infections” (The Medicines Company, priority 2008, dated 2013)
